Experimental findings from US20100120798A1, “SUBSTITUTED PIPERIDINES CONTAINING A HETEROARYLAMIDE OR HETEROARYLPHENYL MOIETY” (ASTEX THERAPEUTICS LIMITED, priority 2006, published 2010) are described below.

Where a name gives a salt, the structure may show the parent alone. Bounds are passed on as bounds.

The nature of this test: In vitro MDA-MB-468 human breast adenocarcinoma GSK-3 phosphorylation assay. The conditions noted are these: mean IC50, MDA-MB-468 cells, 2 hours with compound, phospho-GSK-3β. The test is classed as cell-based. The text has this:
This assay determines the ability of test compounds to inhibit phosphorylation of Serine-9 residue in Glycogen Synthase Kinase-3beta (GSK-3β) as a surrogate marker of cellular PKB (Akt) activity, as assessed using Acumen Explorer Fluorescent Plate-Reader technology. A MDA-MB-468 human breast adenocarcinoma cell line (LGC Promochem, Teddington, Middlesex, UK, Catalogue No. HTB-132) was routinely maintained in Dulbecco's modified Eagle's growth medium (DMEM; Invitrogen Limited, Paisley, UK Catalogue No. 11966-025) containing 10% heat-inactivated foetal calf serum (FCS; Sigma, Poole, Dorset, UK, Catalogue No. F0392) and 1% L-glutamine (Gibco, Catalogue No. 25030-024) at 37° C. with 5% CO2 up to a confluency of 70-90%.
For the phosphorylation assay, the cells were detached from the culture flask using Trypsin-EDTA (Invitrogen Limited, Catalogue No. 25300-062) and seeded into the wells of a black transparent-bottom Corning Costar Polystyrene 96 well plate (Fisher Scientific UK, Loughborough, Leicestershire, UK; Catalogue No. 3904 and DPS-130-020K) at a density of 5000 cells per well in 100 μl of complete growth media. The cells were incubated overnight at 37° C. with 5% CO2 to allow them to adhere.
On day 2, the cells were treated with test compounds and incubated for 2 hours at 37° C. with 5% CO2. Test compounds were prepared as 10 mM stock solutions in DMSO and dosed directly to required concentration into test wells using non-contact (acoustic dispensing of multiple 2.5 nl droplets directly into assay wells) ECHO dosing technology (Labcyte Inc. Sunnyvale, Calif., USA). Each plate contained control wells without test compound.
20 μl of fixing buffer (Phosphate Buffered Saline (PBS) containing 10% formaldehyde; Sigma; Catalogue No. F1635) was then added to each well to give a final well concentration 1.6%. Plates were then incubated for 30 minutes at room temperature prior to the fixative being removed. Each well was washed once with 250 μl of PBS and then 50 μl PBS added to each well. PBS was then aspirated and cells permeabilised and blocked by incubating each well with 50 μl of permeabilisation/blocking buffer (PBS containing 0.5% Tween 20 (Sigma; Catalogue No. P5927) and 5% Marvel Milk Powder (Andrews Pharmacy Ltd, Macclesfield, Cheshire, UK; Catalogue No. APC100199)) for 1 hour at room temperature prior to staining.
Following removal of Perm/Block buffer, 50 μl of primary anti-phospho-GSK-3β antibody (Cell Signalling Technology (New England Biolabs (Uk) Ltd.), Hitchin, Hertfordshire, UK; Catalogue No. 9336 diluted 1:400 in Blocking buffer (PBS containing 5% Marvel and 0.05% Tween/Polysorbate 20) was added to each well and incubated overnight at 4° C.
Each well was washed three times in 250 μl of wash buffer (PBS containing 0.05% polysorbate 20), and cells incubated for 1 hour at room temperature with 50 μl of secondary fluorescently-labelled anti-rabbit Alexa Fluor 488 antibody (Molecular Probes, Invitrogen Limited, Catalogue No. A11008) diluted 1:750 in blocking buffer. Plates were washed three times in 250 μl of wash buffer and stored containing 50 μl of PBS at 4° C. until required.
Plates were analysed using an Acumen Explorer Plate-reader to quantify level of fluorescent signal that represents quantity of phosphorylated-GSK-3β.
IC50 calculation—IC50 is the concentration of compound required to give 50% effect over the range of activity affected by the compound, between maximum (no compound) and minimum (excess level of compound) response control data. IC50 values were determined by fitting background corrected, dose response assay data to a 4 parameter logistic curve fit equation model with the minimum response set to zero. This was done using an in-house developed algorithm within the Origin graphing software package (OriginLab Corporation, Northampton, Mass., USA). […]
A word on the IC50: it is the concentration at which inhibition is half-maximal. As for `NCC1(C(=O)Nc2ccc(C(F)(F)F)cn2)CCN(c2ncnc3[nH]ccc23)CC1` [Example 61, 4-(Aminomethyl)-1-(7H-pyrrolo[2,3-d]pyrimidin-4-yl)-N-(5-(trifluoromethyl)pyridin-2-yl)piperidine-4-carboxamide], the concentration for half-maximal inhibition (IC50) is 47 nM.

As for `Cc1cnc(NC(=O)C2(CN)CCN(c3ncnc4[nH]cnc34)CC2)s1` [Example 72, 4-(Aminomethyl)-N-(5-methylthiazol-2-yl)-1-(9H-purin-6-yl)piperidine-4-carboxamide], the IC50 is 310 nM.

Turning to `Cn1cc(-c2cccc(C3(CN4CCCC4)CCN(c4ncnc5[nH]cnc45)CC3)c2)cn1` [Example 33, 6-(4-(3-(1-methyl-1H-pyrazol-4-yl)phenyl)-4-(pyrrolidin-1-ylmethyl)piperidin-1-yl)-9H-purine], the IC50 stood at 740 nM.

Consider `Cc1c[nH]c2ncnc(N3CCC(CN)(c4cccc(-c5cnn(C)c5)c4)CC3)c12` [Example 30, (4-(3-(1-methyl-1H-pyrazol-4-yl)phenyl)-1-(5-methyl-7H-pyrrolo[2,3-d]pyrimidin-4-yl)piperidin-4-yl)methanamine], for which the 50% inhibitory concentration (IC50) came out at 27 nM.

In the case of `NC1(C(=O)NCc2cc(-c3ccc(Cl)cc3)no2)CCN(c2ncnc3[nH]ccc23)CC1` [Example 44, 4-amino-N-[[3-(4-chlorophenyl)-1,2-oxazol-5-yl]methyl]-1-(7H-pyrrolo[2,3-d]pyrimidin-4-yl)piperidine-4-carboxamide], the IC50 is 19000 nM.

In the case of `NC1(C(=O)NCc2ccc(Cl)s2)CCN(c2ncnc3[nH]ccc23)CC1` [Example 39, 4-Amino-N-[(5-chlorothiophen-2-yl)methyl]-1-(7H-pyrrolo[2,3-d]pyrimidin-4-yl)piperidine-4-carboxamide], the IC50 amounted to 300 nM.

As for `NCC1(c2cccc(-c3ccoc3)c2)CCN(c2ncnc3[nH]ccc23)CC1` [Example 79, [4-(3-furan-3-ylphenyl)-1-(7H-pyrrolo[3,2-e]pyrimidin-4-yl)piperidin-4-yl]methanamine], the IC50 was found to be 48 nM.

`NCC1(C(=O)Nc2ccc(F)cn2)CCN(c2ncnc3[nH]ccc23)CC1` [Example 60, 4-(aminomethyl)-N-(5-fluoropyridin-2-yl)-1-(7H-pyrrolo[2,3-d]pyrimidin-4-yl)piperidine-4-carboxamide]: the IC50 was found to be 330 nM.

Consider `NCC1(c2cccc(-c3cncc(F)c3)c2)CCN(c2ncnc3[nH]cnc23)CC1` [Example 8, C-[4-[3-(5-Fluoro-pyridin-3-yl)-phenyl]-1-(9H-purin-6-yl)-piperidin-4-yl]-methylamine], for which the half-maximal inhibitory concentration (IC50) is below 13 nM.

Consider `NCC1(c2cccc(-c3cnoc3)c2)CCN(c2ncnc3[nH]ccc23)CC1` [Example 80, [4-[3-(1,2-oxazol-4-yl)phenyl]-1-(7H-pyrrolo[3,2-e]pyrimidin-4-yl)piperidin-4-yl]methanamine], for which the 50% inhibitory concentration (IC50) was 100 nM.

Consider `Cn1cc(-c2cccc(C3(CN)CCN(c4ncnc5[nH]cc(Cl)c45)CC3)c2)cn1` [Example 29, (1-(5-Chloro-7H-pyrrolo[2,3-d]pyrimidin-4-yl)-4-(3-(1-methyl-1H-pyrazol-4-yl)phenyl)piperidin-4-yl)methanamine], for which the half-inhibitory concentration (IC50) stood at 11 nM.

Consider `Cc1ccsc1CNC(=O)C1(N)CCN(c2ncnc3[nH]ccc23)CC1` [Example 47, 4-Amino-1-(7H-pyrrolo[2,3-d]pyrimidin-4-yl)-piperidine-4-carboxylic acid (3-methyl-thiophen-2-ylmethyl)-amide], for which the IC50 turned out to be 3900 nM.

Consider `NC1(C(=O)NCc2cnc3ccccc3c2)CCN(c2ncnc3[nH]ccc23)CC1` [Example 41, 4-Amino-1-(7H-pyrrolo[2,3-d]pyrimidin-4-yl)-N-(quinolin-3-ylmethyl)piperidine-4-carboxamide], for which the half-inhibitory concentration (IC50) turned out to be 4100 nM.

For the compound `Cn1cc(-c2cccc(C3(CN)CCN(c4ncnc5[nH]cc(Br)c45)CC3)c2)cn1` [Example 28, (1-(5-bromo-7H-pyrrolo[2,3-d]pyrimidin-4-yl)-4-(3-(1-methyl-1H-pyrazol-4-yl)phenyl)piperidin-4-yl)methanamine], the IC50 turned out to be 7.2 nM.

For the compound `CNCC1(c2cccc(-c3cnn(C)c3)c2)CCN(c2ncnc3[nH]cnc23)CC1` [Example 9, Methyl-[4-[3-(1-methyl-1H-pyrazol-4-yl)-phenyl]-1-(9H-purin-6-yl)-piperidin-4-ylmethyl]-amine], the IC50 amounted to 400 nM.

With `NCC1(c2cccc(-c3ccco3)c2)CCN(c2ncnc3[nH]ccc23)CC1` [Example 78, [4-[3-(furan-2-yl)phenyl]-1-(7H-pyrrolo[3,2-e]pyrimindin-4-yl)piperidin-4-yl]methanamine], the IC50 worked out at 50 nM.

`NCC1(C(=O)Nc2ccc(Cl)cn2)CCN(c2ncnc3[nH]ccc23)CC1` [Example 81, 4-(Aminomethyl)-N-(5-chloropyridin-2-yl)-1-(7H-pyrrolo[2,3-d]pyrimidin-4-yl)piperidine-4-carboxamide]: the IC50 came to 73 nM.

On to `Cn1cc(-c2cccc(C3(C(N)=O)CCN(c4ncnc5[nH]cnc45)CC3)c2)cn1` [Example 37, 4-[3-(1-methylpyrazol-4-yl)phenyl]-1-(9H-purin-6-yl)piperidine-4-carboxamide], for which the IC50 is above 30000 nM.

Turning to `Cn1cc(-c2cccc(C3(CO)CCN(c4ncnc5[nH]cnc45)CC3)c2)cn1` [Example 10, [4-[3-(1-Methyl-1H-pyrazol-4-yl)-phenyl]-1-(9H-purin-6-yl)-piperidin-4-yl]-methanol], the half-maximal inhibitory concentration (IC50) turned out to be 5100 nM.

For `NCC1(c2cccc(-c3ccncc3)c2)CCN(c2ncnc3[nH]ccc23)CC1` [Example 75, [4-(3-pyridin-4-ylphenyl)-1-(7H-pyrrolo[3,2-e]pyrimidin-4-yl)piperidin-4-yl]methanamine], the IC50 was 65 nM.

Regarding `NCC1(c2cccc(-c3cn[nH]c3)c2)CCN(c2ncnc3[nH]ccc23)CC1` [Example 73, [4-[3-(1H-Pyrazol-4-yl)phenyl]-1-(7H-pyrrolo[3,2-e]pyrimidin-4-yl)piperidin-4-yl]methanamine], the IC50 amounted to 150 nM.

With `CN(C)CC1(c2cccc(-c3cnn(C)c3)c2)CCN(c2ncnc3[nH]cnc23)CC1` [Example 32, N,N-dimethyl-1-(4-(3-(1-methyl-1H-pyrazol-4-yl)phenyl)-1-(9H-purin-6-yl)piperidin-4-yl)methanamine], the half-inhibitory concentration (IC50) was 290 nM.

As for `NC1(C(=O)NCc2ccc(C(F)(F)F)nc2)CCN(c2ncnc3[nH]ccc23)CC1` [Example 14, 4-amino-1-(7H-pyrrolo[2,3-d]pyrimidin-4-yl)-piperidine-4-carboxylic acid (6-trifluoromethyl-pyridin-3-ylmethyl)-amide hydrochloride], the IC50 stood at 1400 nM.

For the compound `Cn1cc(-c2cccc(C3(CCCN)CCN(c4ncnc5[nH]cnc45)CC3)c2)cn1` [Example 34, 3-(4-(3-(1-methyl-1H-pyrazol-4-yl)phenyl)-1-(9H-purin-6-yl)piperidin-4-yl)propan-1-amine], the IC50 is above 2000 nM.

For the compound `NCC1(C(=O)NCc2cc(Br)no2)CCN(c2ncnc3[nH]ccc23)CC1` [Example 24, 4-(Aminomethyl)-N-((3-bromoisoxazol-5-yl)methyl)-1-(7H-pyrrolo[2,3-d]pyrimidin-4-yl)piperidine-4-carboxamide], the IC50 worked out at 8.6 nM.

On to `Cc1cnc(NC(=O)C2(CN)CCN(c3ncnc4[nH]ccc34)CC2)s1` [Example 59, 4-(aminomethyl)-N-(5-methylthiazol-2-yl)-1-(7H-pyrrolo[2,3-d]pyrimidin-4-yl)piperidine-4-carboxamide], for which the IC50 was 200 nM.

With `NCC1(c2cc(F)cc(-c3cncc(F)c3)c2)CCN(c2ncnc3[nH]ccc23)CC1` [Example 71, (4-(3-Fluoro-5-(5-fluoropyridin-3-yl)phenyl)-1-(7H-pyrrolo[2,3-d]pyrimidin-4-yl)piperidin-4-yl)methanamine], the half-inhibitory concentration (IC50) stood at 17 nM.
